# From US6528516B1, “Methods for reducing intraocular pressure using A3 adenosine receptor antagonists” (Trustees of the University of Pennsylvania, The Center for …, priority 1998, dated 2003)
# “Also recorded” adds a separate entry of the source.
# Key:
# [1] = test system: large-conductance Cl− channel, NIH 3T3 fibroblasts transfected with MDR1; settings: NIH 3T3 fibroblasts after MDR1 transfection and growth in colchicine; read-out: EC50 for activation of large-conductance Cl− channel; cited from earlier work
# [2] = test system: swelling-activated Cl− channels of NPE cells; assay: Regulatory volume decrease (RVD) of NPE cells after hypotonic swelling; assay type: cell-based, human; settings: for effect on cell volume after RVD: TMX added at t=10 min, conclusion of the RVD
# [3] = test system: Bovine PE cells; assay: Intracellular Ca2+ of PE cells (fura-2); assay type: cell-based; settings: for effect of TMX on the Ca2+ response to ATP: 10 μM TMX, 100 μM ATP, 20-sec applications
# Experimental: Bovine PE cells grown on coverslips for 2-4 days were loaded with 5 μM fura-2 μAM for 30-45 min at room temperature, and then rinsed and maintained in fura-free solution before beginning data acquisition. The coverslips were mounted on a Nikon Diaphot microscope and visualized with a ×40 oil-immersion fluorescence objective. The emitted fluorescence (510 nm) from 10-12 confluent cells was sampled at 1 Hz following excitation at 340 nm and 380 nm, and the ratio determined with a Delta-Ram system and Felix software (Photon Technology International Inc., Princeton, N.J.). The ratio of light excited at 340 nm to that at 380 nm was converted into Ca^2+ concentration using the method of Grynkiewicz et al. (J. Biol. Chem. 260:3440-3450, 1985). […] Rmin was obtained by bathing cells in a Ca^2+ free isotonic solution of pH 8.0 containing 10 mM EGTA and 5 μM ionomycin. R^max was obtained by bathing the cells in isotonic solution with 1.3 mM Ca^2+ and 5 μM ionomycin. Calibration was performed separately for each experiment. Baseline levels from PE cells in the absence of fura-2 were subtracted from records to control for autofluorescence. Experiments were performed predominantly at room temperature, but several trials were performed at 37° C. using a temperature control unit from Warner Instrument Corp., (Hamden, Conn.). Cells were perfused with an isotonic solution containing (in mM) 105 NaCl, 6HEPES (acid), 4HEPES (Na^+), 1.3 CaCl2, 1 MgCl2, 4 KCl, 5 glucose and 90 mannitol, at an osmolarity of 317 mOsm, pH 7.4.
# [4] = test system: bovine pigmented ciliary epithelial (PE) cells; assay: Cell volume (shrinkage) of PE cells in isoosmotic suspension, Coulter Counter; assay type: cell-based; settings: for effect of tamoxifen alone on PE cell volume: absence of ATP, 30-min observation
# [5] = 6 μM tamoxifen + 10 μM ATP, 5 μM gramicidin D, Cl− present, FIG. 12A
# [6] = 6 μM tamoxifen + 10 μM ATP, FIG. 8C
# [7] = 10 μM tamoxifen + 100 μM ATP, FIG. 15, first 6 time points
# [8] = 10 μM tamoxifen + 100 μM ATP, FIG. 16A
# [9] = 100 μM ATP + 10 μM TMX, FIG. 13C
# [10] = 100 μM ATP + 10 μM agent, FIG. 13A
# [11] = 100 μM ATP + 10 μM agent, FIG. 14A
# [12] = ATP + agent (ATP+TMX; ATP+atropine), FIG. 13B
# [13] = ATP + tamoxifen, absence of Cl− channel inhibitors, FIG. 12B
smiles,measurement,setting,value
CC/C(=C(\c1ccccc1)c1ccc(OCCN(C)C)cc1)c1ccccc1 [tamoxifen],EC50,[1],~15 µM
same,effect on regulatory volume decrease (RVD),[2]; TMX added at t=5 min,reduced the magnitude of the RVD
same,effect on regulatory volume decrease (RVD),"[2]; TMX added at t=5 min, listed as TMX",partially inhibited the steady-state response
same,effect on cell volume after RVD,[2],did not affect cell volume
same,effect on cell volume after RVD,[2]; listed as TMX,no effect on cell volume
same,effect on regulatory volume decrease (RVD),"[2]; TMX added at the time of hypotonic stress, 5 μM gramicidin D",completely abolished the RVD
same,effect on regulatory volume decrease (RVD),"[2]; TMX added at the time of hypotonic stress, 5 μM gramicidin D, listed as TMX",abolished the RVD
same,effect of TMX on the Ca2+ response to ATP,[3],does not alter the magnitude of the response
same,effect of TMX on the Ca2+ response to ATP,[3]; listed as TMX,did not affect the size
same,change (Δ) in intracellular Ca2+,[3]; 10 μM tamoxifen alone,7 ± 6 nM
same,effect of tamoxifen alone on Ca2+,[3]; tamoxifen alone,no significant effect
same,steady-state cell volume (v∞),"[4]; 3 μM ATP+10 μM TMX, FIG. 8B",96.7±0.4%
same,time constant of the shrinkage (τ),"[4]; 3 μM ATP+10 μM TMX, FIG. 8B",5.8 ± 2.1 min
same,steady-state cell volume (v∞),[4]; [5],90.6%±1.1%
same,time constant of the shrinkage (τ),[4]; [5],13.2 ± 3.2 min
same,steady-state cell volume (v∞),[4]; [6],95.7±0.7%
same,time constant of the shrinkage (τ),[4]; [6],6.6 ± 3.2 min
same,steady-state cell volume (v∞),"[4]; 10 μM ATP + 6 μM TMX, FIG. 10A",92.8±0.8%
same,time constant of the shrinkage (τ),"[4]; 10 μM ATP + 6 μM TMX, FIG. 10A",11.4 ± 0.3 min
same,steady-state cell volume (v∞),"[4]; 10 μM ATP+10 μM TMX, FIG. 8B",95.7±0.3%
same,time constant of the shrinkage (τ),"[4]; 10 μM ATP+10 μM TMX, FIG. 8B",1.4 ± 0.7 min
same,effect of agent on shrinkage in the presence of ATP,"[4]; 10 μM agent, 100 μM ATP, FIG. 13A",enhanced shrinkage
same,steady-state cell volume (v∞),[4]; [7],89.7±6.1%
same,time constant of the shrinkage (τ),[4]; [7],22.9 ± 19.0 min
same,steady-state cell volume (v∞),[4]; [8],93.9±1.0%
same,time constant of the shrinkage (τ),[4]; [8],15.6 ± 5.0 min
same,steady-state cell volume (v∞),[4]; [9],89.6±1.9%
same,time constant of the shrinkage (τ),[4]; [9],11.3 ± 4.7 min
same,steady-state cell volume (v∞),[4]; [10],94.1±0.6%
same,time constant of the shrinkage (τ),[4]; [10],6.5 ± 2.3 min
same,steady-state cell volume (v∞),[4]; [11],94.8±0.4%
same,time constant of the shrinkage (τ),[4]; [11],2.2 ± 10.8 min
same,effect of tamoxifen on the ATP-triggered shrinkage,[4]; 6-10 μM tamoxifen with ATP,strongly enhanced; also recorded: enhanced the response; also recorded: enhanced the ATP-triggered shrinkage
same,steady-state cell volume (v∞),[4]; [12],88.4±0.5%
same,time constant of the shrinkage (τ),[4]; [12],7.2 ± 0.9 min
same,steady-state cell volume (v∞),[4]; [13],94.2%±0.3%
same,time constant of the shrinkage (τ),[4]; [13],4.4 ± 0.8 min
same,effect of tamoxifen alone on PE cell volume,[4],no consistent response
same,effect of tamoxifen alone on PE cell volume,[4]; listed as Tamoxifen,no consistent effect
